The source made the active and inactive calls.
What was measured:
[1] = target: Voltage-gated inwardly rectifying potassium channel KCNH2 (Homo sapiens, UniProt Q12809); conditions: Potency;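 further: confirmatory quantitative high-throughput screen measuring inhibition of hERG channel activity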
Mu-type opioid receptor = Mu-type opioid receptor (Homo sapiens, UniProt P35372); format: functional, cell-based;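 further: U2OS cells with beta-arrestin recruitment to OPRM1 by beta-gal complementation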
[2] = target: 5-hydroxytryptamine receptor 2A (Mus musculus, UniProt P35363); format: functional, cell-based;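 further: CHO-K1 cells with tagged receptor and beta-arrestin; agonist potency measured as compound-induced activation of the receptor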
[3] = target: Palmitoyl-protein thioesterase ABHD10, mitochondrial (Mus musculus, UniProt Q6PE15); experiment: Late stage assay provider results from the probe development effort to identify inhibitors of PME-1: fluorescence-based dose response biochemical gel-based competitive Activity-Based Protein Profiling (ABPP) inhibition of ABHD10 Set 2.; format: functional
Fatty acid synthase [4] = target: T1, Fatty acid synthase (Homo sapiens, UniProt P49327); experiment: inhibition of human FAS-TE enzyme activity – biochemical, kinetic fluorescence intensity, dose response (AID 624326); format: functional;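 further: rate of fluorescence rise from hydrolysis of a fluorogenic O-methyl fluorescein ester substrate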
Fatty acid synthase [5] = target: T1, Fatty acid synthase; experiment: inhibition of human FAS-TE enzyme activity – biochemical, endpoint fluorescence intensity, uHTS hits, dose response (AID 624327); format: functional;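 further: fluorescence from hydrolysis of an O-methyl fluorescein acyl ester substrate by the enzyme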
[6] = target: T2, Corticotropin-releasing factor receptor 2/Corticotropin-releasing factor-binding protein (Homo sapiens, UniProt P24387+Q13324); experiment: activators of CRF receptor 2 with binding protein – uHTS hits, confirmation (AID 602473); format: functional; conditions: read-out: EC50_Mean
T2 sequence (Q13324 whole entry): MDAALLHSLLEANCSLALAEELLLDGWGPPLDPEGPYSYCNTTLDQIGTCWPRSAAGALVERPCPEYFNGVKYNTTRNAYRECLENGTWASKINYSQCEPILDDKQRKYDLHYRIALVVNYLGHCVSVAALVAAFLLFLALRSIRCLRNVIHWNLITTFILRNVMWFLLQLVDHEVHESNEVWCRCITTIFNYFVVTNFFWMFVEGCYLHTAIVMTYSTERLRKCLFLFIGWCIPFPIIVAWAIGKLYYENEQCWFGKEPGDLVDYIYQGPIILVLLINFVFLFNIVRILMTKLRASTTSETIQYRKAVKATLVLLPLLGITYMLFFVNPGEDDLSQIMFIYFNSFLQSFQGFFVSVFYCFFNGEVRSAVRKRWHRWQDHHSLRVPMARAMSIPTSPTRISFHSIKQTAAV
T2 sequence (P24387 whole entry): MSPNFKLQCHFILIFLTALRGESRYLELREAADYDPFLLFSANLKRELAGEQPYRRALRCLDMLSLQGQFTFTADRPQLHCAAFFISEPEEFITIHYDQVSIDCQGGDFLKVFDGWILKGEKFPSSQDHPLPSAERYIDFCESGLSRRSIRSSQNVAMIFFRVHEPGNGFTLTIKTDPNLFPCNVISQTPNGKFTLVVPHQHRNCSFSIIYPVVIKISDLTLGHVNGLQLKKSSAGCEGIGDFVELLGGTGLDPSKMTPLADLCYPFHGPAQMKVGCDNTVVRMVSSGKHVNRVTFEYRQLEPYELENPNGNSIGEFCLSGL

[7] = blockers of CRF-binding protein–CRF-R2 complex – cell-based, uHTS hits, 384-well, dose response (AID 651639); format: functional, Homo sapiens; conditions: read-out: IC50_Mean
[8] = target: T2, Corticotropin-releasing factor receptor 2/Corticotropin-releasing factor-binding protein; experiment: Dose Response confirmation of uHTS hits for small molecule antagonists of the CRF-binding protein and CRF-R2 receptor complex.; format: functional; conditions: read-out: IC50_Mean
HEK293 [9] = experiment: optical interference in Abeta FP readout, dose response, artefact control for IDE activator project, biochemical, fluorescence polarization (AID 588442); format: functional, cell-based; conditions: Homo sapiens
Beta-lactamase [10] = target: Beta-lactamase (Salmonella choleraesuis (strain SC-B67), UniProt Q5J463)
Insulin-degrading enzyme [11] = target: T3, Insulin-degrading enzyme (Homo sapiens, UniProt P14735); experiment: recombinant IDE activation, cell-free – biochemical, fluorescence polarization, counter-screen for IDE activator project, dose response (AID 588681)
T3 sequence (P14735 whole entry): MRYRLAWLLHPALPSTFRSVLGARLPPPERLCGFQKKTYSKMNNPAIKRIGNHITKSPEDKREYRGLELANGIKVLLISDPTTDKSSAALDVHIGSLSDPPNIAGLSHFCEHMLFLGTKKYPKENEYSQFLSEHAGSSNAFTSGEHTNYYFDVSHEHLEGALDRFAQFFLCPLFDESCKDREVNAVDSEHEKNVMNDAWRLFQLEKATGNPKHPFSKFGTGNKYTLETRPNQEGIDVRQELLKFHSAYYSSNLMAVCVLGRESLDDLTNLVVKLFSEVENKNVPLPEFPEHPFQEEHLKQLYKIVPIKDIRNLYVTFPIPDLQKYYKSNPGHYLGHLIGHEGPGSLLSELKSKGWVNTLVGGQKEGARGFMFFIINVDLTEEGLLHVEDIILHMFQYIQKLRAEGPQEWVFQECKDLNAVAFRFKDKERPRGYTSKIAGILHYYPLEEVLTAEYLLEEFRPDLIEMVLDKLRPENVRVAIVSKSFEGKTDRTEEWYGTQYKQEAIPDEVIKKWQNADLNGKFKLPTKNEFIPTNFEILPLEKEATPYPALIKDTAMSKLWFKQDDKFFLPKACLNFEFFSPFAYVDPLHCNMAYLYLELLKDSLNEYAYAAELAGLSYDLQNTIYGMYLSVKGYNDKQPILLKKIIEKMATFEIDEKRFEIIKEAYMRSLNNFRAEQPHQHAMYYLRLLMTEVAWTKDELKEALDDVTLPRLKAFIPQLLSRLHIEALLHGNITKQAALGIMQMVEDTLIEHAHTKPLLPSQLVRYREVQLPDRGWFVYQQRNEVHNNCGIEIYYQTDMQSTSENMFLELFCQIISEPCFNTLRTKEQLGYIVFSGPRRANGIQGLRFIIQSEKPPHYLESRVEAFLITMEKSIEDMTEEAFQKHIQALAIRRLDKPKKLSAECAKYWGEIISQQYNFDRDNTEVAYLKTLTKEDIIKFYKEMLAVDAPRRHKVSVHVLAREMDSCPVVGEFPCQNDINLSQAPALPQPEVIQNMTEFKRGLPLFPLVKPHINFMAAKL

Insulin-degrading enzyme [12] = target: T3, Insulin-degrading enzyme; experiment: cellular IDE activation of Abeta substrate cleavage – fluorescence polarization, HEK cells, dose response (AID 588439); format: functional, cell-based
Beta-lactamase [13] = target: Beta-lactamase (Pseudomonas aeruginosa, UniProt Q79MP6);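 further: biochemical dose-response test of metallo-beta-lactamase enzyme inhibition, read out by epi-absorbance; purified recombinant IMP-1 metallo-beta-lactamase with nitrocefin as substrate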
HEK293 [14] = experiment: membrane integrity loss in HEK cells – cell-based, fluorescence, cytotoxicity control for IDE activator project, dose response (AID 588440); format: functional; conditions: Homo sapiens;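 further: cytotoxicity by LDH release measuring loss of membrane integrity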

T1 sequence (P49327 whole entry): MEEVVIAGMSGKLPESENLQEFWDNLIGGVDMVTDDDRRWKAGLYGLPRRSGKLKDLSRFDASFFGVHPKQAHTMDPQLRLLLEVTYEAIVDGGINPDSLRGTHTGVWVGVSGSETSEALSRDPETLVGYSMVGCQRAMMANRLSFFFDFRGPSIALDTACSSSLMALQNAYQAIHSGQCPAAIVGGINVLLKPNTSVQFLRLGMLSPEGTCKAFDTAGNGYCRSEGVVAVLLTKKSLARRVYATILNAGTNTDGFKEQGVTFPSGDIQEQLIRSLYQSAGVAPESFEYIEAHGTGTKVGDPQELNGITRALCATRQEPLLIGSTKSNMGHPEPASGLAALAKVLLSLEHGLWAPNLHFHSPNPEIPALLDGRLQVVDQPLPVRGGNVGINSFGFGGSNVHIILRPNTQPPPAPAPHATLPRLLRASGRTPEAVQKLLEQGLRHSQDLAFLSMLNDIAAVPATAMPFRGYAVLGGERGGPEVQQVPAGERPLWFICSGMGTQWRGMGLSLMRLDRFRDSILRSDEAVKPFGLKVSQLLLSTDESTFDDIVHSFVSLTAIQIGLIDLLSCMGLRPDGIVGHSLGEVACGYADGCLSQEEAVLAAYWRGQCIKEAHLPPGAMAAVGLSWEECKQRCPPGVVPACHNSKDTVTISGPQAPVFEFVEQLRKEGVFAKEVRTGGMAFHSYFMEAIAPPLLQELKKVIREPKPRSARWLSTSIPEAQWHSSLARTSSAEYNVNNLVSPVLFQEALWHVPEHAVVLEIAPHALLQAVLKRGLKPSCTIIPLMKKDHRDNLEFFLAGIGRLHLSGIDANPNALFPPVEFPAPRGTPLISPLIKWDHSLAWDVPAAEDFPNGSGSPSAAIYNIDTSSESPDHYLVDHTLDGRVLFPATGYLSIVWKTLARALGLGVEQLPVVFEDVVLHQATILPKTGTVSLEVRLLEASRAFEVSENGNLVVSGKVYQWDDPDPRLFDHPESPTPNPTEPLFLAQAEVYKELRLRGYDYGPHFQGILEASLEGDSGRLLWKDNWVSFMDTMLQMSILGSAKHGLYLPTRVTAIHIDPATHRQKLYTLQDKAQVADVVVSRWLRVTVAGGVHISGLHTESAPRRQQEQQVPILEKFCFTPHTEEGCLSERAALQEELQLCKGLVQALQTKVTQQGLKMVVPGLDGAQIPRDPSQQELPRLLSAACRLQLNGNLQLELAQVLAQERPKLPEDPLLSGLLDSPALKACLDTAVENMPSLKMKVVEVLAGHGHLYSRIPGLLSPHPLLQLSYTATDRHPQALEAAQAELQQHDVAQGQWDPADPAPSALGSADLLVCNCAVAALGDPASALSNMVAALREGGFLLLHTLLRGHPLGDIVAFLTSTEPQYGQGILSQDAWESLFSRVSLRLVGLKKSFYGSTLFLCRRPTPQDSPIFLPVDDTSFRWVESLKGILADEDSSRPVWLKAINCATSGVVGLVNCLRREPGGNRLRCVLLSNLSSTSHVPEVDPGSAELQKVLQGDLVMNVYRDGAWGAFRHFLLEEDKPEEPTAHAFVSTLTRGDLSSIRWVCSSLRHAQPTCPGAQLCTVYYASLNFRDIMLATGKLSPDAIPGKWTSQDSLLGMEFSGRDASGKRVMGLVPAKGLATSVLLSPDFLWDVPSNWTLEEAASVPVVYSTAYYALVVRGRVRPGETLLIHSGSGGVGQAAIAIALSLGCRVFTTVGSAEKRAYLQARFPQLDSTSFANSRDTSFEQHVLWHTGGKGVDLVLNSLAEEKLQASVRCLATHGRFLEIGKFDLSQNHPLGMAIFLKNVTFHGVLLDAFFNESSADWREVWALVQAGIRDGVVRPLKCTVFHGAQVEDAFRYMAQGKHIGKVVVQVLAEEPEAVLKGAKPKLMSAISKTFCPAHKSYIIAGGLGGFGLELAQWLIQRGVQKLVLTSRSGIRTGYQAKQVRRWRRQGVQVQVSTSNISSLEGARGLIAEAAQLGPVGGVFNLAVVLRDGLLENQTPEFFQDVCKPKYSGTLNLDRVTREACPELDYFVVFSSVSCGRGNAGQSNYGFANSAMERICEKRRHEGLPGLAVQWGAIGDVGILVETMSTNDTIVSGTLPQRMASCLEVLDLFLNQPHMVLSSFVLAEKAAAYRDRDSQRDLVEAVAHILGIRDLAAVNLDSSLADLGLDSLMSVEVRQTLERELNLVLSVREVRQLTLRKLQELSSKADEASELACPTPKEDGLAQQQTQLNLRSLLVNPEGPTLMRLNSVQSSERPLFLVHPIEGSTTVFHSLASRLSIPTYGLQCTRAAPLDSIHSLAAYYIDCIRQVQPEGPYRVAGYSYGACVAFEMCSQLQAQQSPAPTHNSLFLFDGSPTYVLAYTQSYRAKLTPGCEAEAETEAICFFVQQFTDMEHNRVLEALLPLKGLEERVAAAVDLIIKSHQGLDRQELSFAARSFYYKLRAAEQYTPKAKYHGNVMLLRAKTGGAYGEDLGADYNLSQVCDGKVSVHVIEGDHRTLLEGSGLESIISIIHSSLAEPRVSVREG
Chain of Beta-lactamase (Pseudomonas aeruginosa, UniProt Q79MP6) (Q79MP6 whole entry): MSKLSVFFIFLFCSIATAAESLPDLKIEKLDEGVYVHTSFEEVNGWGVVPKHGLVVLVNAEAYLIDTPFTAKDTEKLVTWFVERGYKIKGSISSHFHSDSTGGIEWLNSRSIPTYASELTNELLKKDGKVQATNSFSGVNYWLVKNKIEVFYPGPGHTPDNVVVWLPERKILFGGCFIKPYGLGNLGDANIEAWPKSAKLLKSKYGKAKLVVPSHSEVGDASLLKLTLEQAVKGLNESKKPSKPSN
Chain of Palmitoyl-protein thioesterase ABHD10, mitochondrial (Q6PE15 whole entry): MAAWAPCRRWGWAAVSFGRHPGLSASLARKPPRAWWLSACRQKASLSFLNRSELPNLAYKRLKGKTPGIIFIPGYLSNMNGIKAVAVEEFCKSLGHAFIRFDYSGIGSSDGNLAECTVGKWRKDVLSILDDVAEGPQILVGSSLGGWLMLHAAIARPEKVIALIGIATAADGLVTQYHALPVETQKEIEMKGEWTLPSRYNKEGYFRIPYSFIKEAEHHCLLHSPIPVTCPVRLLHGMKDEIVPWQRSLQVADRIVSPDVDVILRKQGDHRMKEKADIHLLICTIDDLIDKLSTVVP
Chain of Voltage-gated inwardly rectifying potassium channel KCNH2 (Q12809 whole entry): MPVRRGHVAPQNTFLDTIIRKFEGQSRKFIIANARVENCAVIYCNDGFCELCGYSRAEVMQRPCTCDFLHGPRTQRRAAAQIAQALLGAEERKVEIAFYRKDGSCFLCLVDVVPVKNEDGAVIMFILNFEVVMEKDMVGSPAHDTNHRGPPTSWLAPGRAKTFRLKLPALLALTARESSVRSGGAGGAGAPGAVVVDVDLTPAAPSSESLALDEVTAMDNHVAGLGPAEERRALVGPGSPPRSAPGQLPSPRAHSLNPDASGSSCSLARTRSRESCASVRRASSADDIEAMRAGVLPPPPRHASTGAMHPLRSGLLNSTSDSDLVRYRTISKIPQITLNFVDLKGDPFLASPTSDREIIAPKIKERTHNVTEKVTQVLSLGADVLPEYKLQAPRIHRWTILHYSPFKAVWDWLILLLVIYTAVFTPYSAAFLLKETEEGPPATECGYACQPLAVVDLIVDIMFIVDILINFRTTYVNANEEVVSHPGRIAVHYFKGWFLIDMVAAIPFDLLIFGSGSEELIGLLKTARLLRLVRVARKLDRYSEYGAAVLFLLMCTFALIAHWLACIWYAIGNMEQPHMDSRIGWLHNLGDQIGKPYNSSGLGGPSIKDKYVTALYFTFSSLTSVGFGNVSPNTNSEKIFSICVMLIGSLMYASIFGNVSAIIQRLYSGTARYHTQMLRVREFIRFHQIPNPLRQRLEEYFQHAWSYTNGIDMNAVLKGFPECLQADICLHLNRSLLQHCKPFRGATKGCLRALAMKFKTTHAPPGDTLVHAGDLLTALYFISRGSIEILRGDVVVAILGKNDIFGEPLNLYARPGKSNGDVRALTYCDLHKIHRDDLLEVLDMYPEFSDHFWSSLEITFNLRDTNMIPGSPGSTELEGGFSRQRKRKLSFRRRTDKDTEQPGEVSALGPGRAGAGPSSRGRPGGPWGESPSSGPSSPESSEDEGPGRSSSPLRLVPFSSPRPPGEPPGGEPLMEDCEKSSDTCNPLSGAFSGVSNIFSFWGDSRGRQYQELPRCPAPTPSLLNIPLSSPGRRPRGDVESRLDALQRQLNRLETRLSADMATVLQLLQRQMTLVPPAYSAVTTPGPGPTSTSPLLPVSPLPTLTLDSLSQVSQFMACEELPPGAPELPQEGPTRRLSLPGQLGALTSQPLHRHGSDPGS
Chain of Beta-lactamase (Salmonella choleraesuis (strain SC-B67), UniProt Q5J463) (Q5J463 whole entry): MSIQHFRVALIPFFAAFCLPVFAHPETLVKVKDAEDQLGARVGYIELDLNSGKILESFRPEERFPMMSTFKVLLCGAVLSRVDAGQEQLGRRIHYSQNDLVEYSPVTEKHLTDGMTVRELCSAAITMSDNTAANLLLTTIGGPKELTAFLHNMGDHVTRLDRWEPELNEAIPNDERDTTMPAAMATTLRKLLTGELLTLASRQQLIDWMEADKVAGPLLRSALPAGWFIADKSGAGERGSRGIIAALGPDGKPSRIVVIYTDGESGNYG
Chain of 5-hydroxytryptamine receptor 2A (P35363 whole entry): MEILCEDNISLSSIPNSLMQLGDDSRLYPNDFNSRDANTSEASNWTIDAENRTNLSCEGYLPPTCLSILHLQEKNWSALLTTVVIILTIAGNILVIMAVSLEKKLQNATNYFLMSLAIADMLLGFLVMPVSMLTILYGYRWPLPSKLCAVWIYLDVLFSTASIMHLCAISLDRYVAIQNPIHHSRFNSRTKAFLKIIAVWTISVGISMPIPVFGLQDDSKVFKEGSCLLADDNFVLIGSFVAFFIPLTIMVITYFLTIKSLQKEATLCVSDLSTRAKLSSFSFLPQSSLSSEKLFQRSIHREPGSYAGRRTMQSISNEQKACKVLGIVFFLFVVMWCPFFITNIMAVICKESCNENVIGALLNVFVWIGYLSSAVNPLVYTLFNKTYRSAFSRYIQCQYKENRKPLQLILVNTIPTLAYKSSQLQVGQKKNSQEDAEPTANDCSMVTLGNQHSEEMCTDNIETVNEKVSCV

Structure (SMILES): CN1CCc2cc(O)c(O)cc2C(c2ccccc2)C1 (stereo not given)
- AC50 [1]: 35.5 µM (inconclusive)
- EC50 (Mu-type opioid receptor): 92.5 µM (inactive)
- EC50 [2]: 1.36 µM (active)

Structure (SMILES): CC[C@@]1(c2cccc(C)c2)C(=O)N(C(=O)OC)N1C(=O)OC
- IC50 [3]: 0.413 µM (active)
- IC50 (Fatty acid synthase [4]): 5.96 µM (active)
- IC50 (Fatty acid synthase [5]): 6.22 µM (active)

Structure (SMILES): CCOc1cc(-c2cn(S(=O)(=O)c3cccc4nsnc34)nc2N)cc(OCC)c1OCC
- EC50 [6]: > 53 µM (inactive)
- IC50 [7]: > 20 µM (inactive)
- IC50 [8]: 21.1 µM (active)

Structure (SMILES): N#CC(C#N)=C1C=C2C=C(N3CCCCCC3)CCC2CC1 (stereo not given)
- EC50 (HEK293 [9]): > 54.7 µM (inactive)
- IC50 (Beta-lactamase [10]): 1.04 µM (active)
- EC50 (Insulin-degrading enzyme [11]): > 54.7 µM (inactive)
- EC50 (Insulin-degrading enzyme [12]): > 54.7 µM (inactive)
- IC50 (Beta-lactamase [13]): 2.78 µM (active)
- IC50 (HEK293 [14]): > 89.1 µM (inactive)
